From ChEMBL document CHEMBL1201862, “PubChem BioAssay data set” (2004)
The source made the active and inactive calls.

Assays:
BJ [1] = assay: cells; type: functional, cell-based; settings: Homo sapiens
[2] = DRD fibroblast viability loss – cell-based, non-viral oncogenic, luminescence, dose response (AID 1934); type: functional; settings: Homo sapiens
BJ [3] = assay: BJ-TERT-LT-ST fibroblast viability loss – cell-based, RAS-independent, luminescence, dose response (AID 1935); type: functional; settings: Homo sapiens;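 further: BJ fibroblasts immortalized with TERT plus LT and ST oncogenes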
BJ [4] = assay: growth inhibition of engineered Ras-driven BJ cells – cell-based, alamar blue fluorescence, cherrypicked samples, dose response (AID 2631); type: functional; settings: Homo sapiens;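 further: confirmatory dose-response assay in RAS-dependent BJ fibroblasts engineered with TERT, LT and ST, with cytotoxicity read by fluorescence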
BJ [5] = assay: BJ-TERT fibroblast viability loss – cell-based, RAS-independent, luminescence, dose response (AID 1933); type: functional; settings: Homo sapiens
[6] = target: T1, Endoribonuclease toxin MazF (Escherichia coli K-12, UniProt P0AE70); assay: activation of MazEF endoribonuclease cleavage – biochemical, fluorescence, single-stranded RNA substrate, uHTS hits, dose response (AID 588481); type: functional
T1 sequence (P0AE70 whole entry): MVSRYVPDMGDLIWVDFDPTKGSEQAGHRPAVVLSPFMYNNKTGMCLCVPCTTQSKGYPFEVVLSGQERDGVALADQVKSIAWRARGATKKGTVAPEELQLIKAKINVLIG

[7] = target: T1, Endoribonuclease toxin MazF; assay: substrate-only fluorescence increase artefacts – biochemical, single-stranded RNase substrate, counter-screen for MazEF activator project, dose response (AID 588502); type: functional
[8] = target: T2, RNA-binding protein pos-1 (Caenorhabditis elegans, UniProt G5EF15); assay: disruptors of C. elegans POS-1 RNA interaction – biochemical, fluorescence polarization, dose response (AID 1964);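 further: purified POS-1 fused to maltose binding protein made in E. coli; potency of compounds blocking POS-1 binding to fluorescent RNA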
T2 sequence (G5EF15 whole entry): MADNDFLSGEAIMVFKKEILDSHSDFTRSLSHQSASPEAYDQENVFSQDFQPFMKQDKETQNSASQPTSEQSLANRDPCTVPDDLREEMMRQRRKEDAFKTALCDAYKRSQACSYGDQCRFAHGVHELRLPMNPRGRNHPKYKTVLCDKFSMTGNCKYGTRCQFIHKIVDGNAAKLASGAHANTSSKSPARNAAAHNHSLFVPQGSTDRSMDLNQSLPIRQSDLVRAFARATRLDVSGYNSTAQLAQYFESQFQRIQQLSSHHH

[9] = target: T3, Zinc finger protein mex-5 (Caenorhabditis elegans, UniProt Q9XUB2); assay: potency of MEX-5 RNA-binding blockers – biochemical, C. elegans, fluorescence polarization, dose response (AID 1960)
T3 sequence (Q9XUB2 whole entry): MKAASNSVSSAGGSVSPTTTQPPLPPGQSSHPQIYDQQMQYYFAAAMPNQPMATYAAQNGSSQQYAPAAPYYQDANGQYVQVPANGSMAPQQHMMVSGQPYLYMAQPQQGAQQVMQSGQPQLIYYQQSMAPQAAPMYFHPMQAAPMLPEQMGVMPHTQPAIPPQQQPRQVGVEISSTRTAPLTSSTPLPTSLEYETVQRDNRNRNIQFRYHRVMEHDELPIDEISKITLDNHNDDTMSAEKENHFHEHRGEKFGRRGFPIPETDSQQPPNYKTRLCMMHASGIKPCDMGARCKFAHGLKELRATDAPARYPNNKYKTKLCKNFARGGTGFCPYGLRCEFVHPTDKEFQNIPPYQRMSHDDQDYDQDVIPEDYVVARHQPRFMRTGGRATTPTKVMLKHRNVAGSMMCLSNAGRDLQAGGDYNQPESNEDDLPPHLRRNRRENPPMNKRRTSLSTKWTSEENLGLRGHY

Caspase-3 = target: T4, Caspase-3 (Homo sapiens, UniProt P42574); assay: SAR Analysis of small molecule inhibitors of Sentrin-specific proteases (SENPs) using a Caspase-3 Selectivity assay. [Related pubchem assays (depositor defined):AID2540, AID2599, AID434973, AID489001]; type: functional
T4 sequence (P42574 whole entry): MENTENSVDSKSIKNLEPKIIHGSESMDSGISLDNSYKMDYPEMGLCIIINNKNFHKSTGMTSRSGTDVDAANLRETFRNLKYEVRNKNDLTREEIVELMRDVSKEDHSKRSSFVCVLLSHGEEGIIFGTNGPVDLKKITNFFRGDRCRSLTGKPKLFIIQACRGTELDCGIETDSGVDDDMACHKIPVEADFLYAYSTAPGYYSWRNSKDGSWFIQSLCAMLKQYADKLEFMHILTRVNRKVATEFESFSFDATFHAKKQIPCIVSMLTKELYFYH

[10] = target: T5, Sentrin-specific protease 8 (Homo sapiens, UniProt Q96LD8); assay: inhibition of human SENP8 cleavage activity – biochemical, luminescence, SAR follow-up (AID 504501); type: functional
T5 sequence (Q96LD8 whole entry): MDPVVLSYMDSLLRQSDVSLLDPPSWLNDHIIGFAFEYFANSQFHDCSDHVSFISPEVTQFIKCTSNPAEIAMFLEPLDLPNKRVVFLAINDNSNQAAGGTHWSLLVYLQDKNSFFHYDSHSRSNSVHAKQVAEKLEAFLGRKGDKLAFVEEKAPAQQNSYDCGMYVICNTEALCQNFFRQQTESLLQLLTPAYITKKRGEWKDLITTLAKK

[11] = target: T6, Sentrin-specific protease 7 (Homo sapiens, UniProt Q9BQF6); assay: inhibition of human SENP7 cleavage activity – biochemical, luminescence, SAR follow-up (AID 504497); type: functional
T6 sequence (Q9BQF6 whole entry): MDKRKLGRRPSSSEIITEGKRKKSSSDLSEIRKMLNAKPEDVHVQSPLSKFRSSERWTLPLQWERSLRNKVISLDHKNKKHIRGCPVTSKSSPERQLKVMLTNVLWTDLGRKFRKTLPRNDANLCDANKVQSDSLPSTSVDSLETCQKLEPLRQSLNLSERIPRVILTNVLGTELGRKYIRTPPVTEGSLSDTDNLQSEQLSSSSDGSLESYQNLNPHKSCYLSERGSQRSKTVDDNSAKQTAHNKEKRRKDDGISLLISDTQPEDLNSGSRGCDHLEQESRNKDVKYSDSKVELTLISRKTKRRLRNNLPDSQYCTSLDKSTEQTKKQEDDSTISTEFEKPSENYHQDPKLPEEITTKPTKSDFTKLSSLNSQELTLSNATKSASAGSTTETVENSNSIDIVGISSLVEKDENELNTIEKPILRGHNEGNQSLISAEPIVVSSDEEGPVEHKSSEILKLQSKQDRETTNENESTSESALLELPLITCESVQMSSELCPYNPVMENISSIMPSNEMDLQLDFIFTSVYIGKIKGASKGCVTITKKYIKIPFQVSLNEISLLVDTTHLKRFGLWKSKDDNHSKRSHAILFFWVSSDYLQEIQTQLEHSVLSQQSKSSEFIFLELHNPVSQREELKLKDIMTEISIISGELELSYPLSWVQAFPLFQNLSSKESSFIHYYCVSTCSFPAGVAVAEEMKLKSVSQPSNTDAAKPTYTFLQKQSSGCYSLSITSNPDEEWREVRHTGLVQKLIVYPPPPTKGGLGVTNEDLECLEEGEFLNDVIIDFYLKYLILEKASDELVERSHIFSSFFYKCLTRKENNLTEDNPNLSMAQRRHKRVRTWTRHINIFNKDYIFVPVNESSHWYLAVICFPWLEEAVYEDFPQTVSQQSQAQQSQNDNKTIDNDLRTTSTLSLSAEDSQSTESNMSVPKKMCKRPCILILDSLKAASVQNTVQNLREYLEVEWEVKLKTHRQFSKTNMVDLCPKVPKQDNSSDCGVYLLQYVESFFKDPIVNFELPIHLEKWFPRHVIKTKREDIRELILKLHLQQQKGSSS

[12] = target: T7, Sentrin-specific protease 6 (Homo sapiens, UniProt Q9GZR1); assay: SAR Analysis of small molecule inhibitors of Sentrin-specific protease 6 (SENP6) using a Luminescent assay. [Related pubchem assays (depositor defined):AID2582, AID2599]; type: functional
T7 sequence (Q9GZR1 whole entry): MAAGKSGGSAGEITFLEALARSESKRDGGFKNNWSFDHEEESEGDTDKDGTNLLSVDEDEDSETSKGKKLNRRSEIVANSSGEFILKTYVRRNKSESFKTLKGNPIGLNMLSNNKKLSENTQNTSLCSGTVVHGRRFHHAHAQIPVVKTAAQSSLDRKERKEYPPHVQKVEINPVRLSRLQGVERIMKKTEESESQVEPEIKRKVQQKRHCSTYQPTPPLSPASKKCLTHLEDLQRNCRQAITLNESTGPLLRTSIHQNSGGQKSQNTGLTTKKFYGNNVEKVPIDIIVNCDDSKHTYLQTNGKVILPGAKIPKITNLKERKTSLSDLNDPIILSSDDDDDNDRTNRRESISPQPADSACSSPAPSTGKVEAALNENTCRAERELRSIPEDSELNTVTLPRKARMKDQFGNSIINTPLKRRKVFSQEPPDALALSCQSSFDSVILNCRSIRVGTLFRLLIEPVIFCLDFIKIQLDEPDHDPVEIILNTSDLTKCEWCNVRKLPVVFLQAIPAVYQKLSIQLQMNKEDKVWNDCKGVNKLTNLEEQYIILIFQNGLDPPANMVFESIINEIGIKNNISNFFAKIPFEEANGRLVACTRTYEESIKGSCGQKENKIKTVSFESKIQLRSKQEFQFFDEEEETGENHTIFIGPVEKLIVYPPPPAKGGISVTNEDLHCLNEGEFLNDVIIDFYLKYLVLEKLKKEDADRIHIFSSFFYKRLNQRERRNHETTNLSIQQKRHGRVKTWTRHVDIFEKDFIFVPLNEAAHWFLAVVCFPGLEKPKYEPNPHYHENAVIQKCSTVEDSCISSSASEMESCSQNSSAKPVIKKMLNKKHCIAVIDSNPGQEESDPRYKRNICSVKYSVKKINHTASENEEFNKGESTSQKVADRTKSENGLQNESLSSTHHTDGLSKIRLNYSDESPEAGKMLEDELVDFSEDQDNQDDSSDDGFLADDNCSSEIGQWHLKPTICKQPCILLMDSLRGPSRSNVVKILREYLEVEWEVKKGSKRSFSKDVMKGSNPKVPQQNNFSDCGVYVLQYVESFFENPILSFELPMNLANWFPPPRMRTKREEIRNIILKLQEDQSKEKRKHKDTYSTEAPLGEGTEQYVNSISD

CSc1cc(-c2ccccc2)n(Cc2ccccc2Cl)c(=O)c1C#N
EC50 (BJ [1]): 43.8 µM (active)
EC50 [2]: 3.67 µM (active)
EC50 (BJ [3]): 33.6 µM (inconclusive)
EC50 (BJ [4]): 1.92 µM (active)
EC50 (BJ [5]): 10.1 µM (inconclusive)

CCCCOc1cccc(C2C(C(=O)c3ccc(C)o3)=C(O)C(=O)N2c2nnc(C)s2)c1 (stereo unspecified)
EC50 [6]: > 99 µM (inactive)
EC50 [7]: 20.4 µM (inactive)
EC50 [8]: 102 µM (active)
EC50 [9]: 77.4 µM (active)

O=[N+]([O-])c1ccccc1CNCCc1c[nH]c2ccccc12
IC50 (Caspase-3): > 99 µM (inactive)
IC50 [10]: > 99 µM (inactive)
IC50 [11]: > 99 µM (inactive)
IC50 [12]: > 99 µM (inactive)

CN(C)c1nc(NCc2ccccc2)nc(N/N=C/c2ccc(Br)cc2)n1
IC50 (Caspase-3): > 99 µM (inactive)
IC50 [10]: > 99 µM (inactive)
IC50 [11]: > 99 µM (inactive)
IC50 [12]: > 99 µM (inactive)

Cc1cccc(N/N=C/c2c[nH]c3ccccc23)c1
IC50 (Caspase-3): > 99 µM (inactive)
IC50 [10]: 34.5 µM (active)
IC50 [11]: 18 µM (active)
IC50 [12]: 32 µM (active)
